In patent US11560352B2, “P62-ZZ small molecule modulators” (University of Pittsburgh—Of the Commonwealth System of …, priority 2015, dated 2023):
Counter-ions that a name gives are not always drawn.

Assays:
RPMI8266 = assay: inhibition of multiple myeloma cell growth, RPMI8266 cells; assay type: cell-based; settings: Homo sapiens
Text: (§1) FIG. 2 is a schematic showing in vitro biological assays to validate screened compounds for multiple myeloma cells growth via inhibition of p62-zz domain and PKCζ phosphorylation.

MM1S = assay: inhibition of multiple myeloma cell growth, MM1S cells; assay type: cell-based; settings: Homo sapiens, MM1.S
Text: as §1

U266 = assay: inhibition of multiple myeloma cell growth, U266 cells; assay type: cell-based; settings: Homo sapiens, U-266
Text: as §1

[1] = test system: RPMI-8226 human multiple myeloma xenograft; assay: subcutaneous RPMI-8226 human multiple myeloma xenograft model: efficacy and tolerability; assay type: in vivo
Description: The therapeutic efficacy and tolerability of compound XIELP1-106 (also referred to as 10b) was evaluated in the treatment of subcutaneous RPMI-8226 human multiple myeloma xenograft model. The tumor volumes in the two groups at different time points are shown FIG. 3. The mean tumor volume of the XIELP1-106 vehicle control group reached 1,452 mm3 on day 39 after tumor implantation. The treatment of XIELP1-106 (60 mg/kg, ip, q3d×4 wks) produced a strong antitumor activity with T/C value of 23% (p=0.001).
The median survival time (MST) of the vehicle treated mice was 42 days (FIG. 4).

SMILES | IC50 (RPMI8266) | IC50 (MM1S) | IC50 (U266) | T/C value (antitumor activity) ([1]; 60 mg/kg, ip, q3d×4 wks, tumor volume vs vehicle control, day 39 after tumor implantation, p=0.001) | body weight loss ([1]; mice, 60 mg/kg ip q3d, after 3 doses, tolerability developed afterwards) | other gross clinical abnormality ([1]; mice, 60 mg/kg ip q3d×4 wks)
Cc1ccc(COc2ccc(CNC3CCCCC3)cc2OCc2ccc(C)cc2)cc1 [XIELP1-51, N-(3,4-bis((4-methylbenzyl)oxy)benzyl)cyclohexanamine] | 1.83 µM | 5.36 µM | – | – | – | –
Fc1ccc(COc2ccc(CNC3CCCCC3)cc2OCc2ccc(F)cc2F)c(F)c1 [XIELP1-20a, N-(3,4-bis((2,4-difluorobenzyl)oxy)benzyl)cyclohexanamine] | 1.13 µM | 2.53 µM | – | – | – | –
Cc1ccc(COc2ccc(CNCCO)cc2OCc2ccc(C)cc2)cc1 [XIELP1-24b, 2-((3,4-bis((4-methylbenzyl)oxy)benzyl)amino)ethan-1-ol] | 0.63 µM | 2.56 µM | 1.21 µM | – | – | –
Fc1ccc(COc2ccc(CNCC3CCCCC3)cc2OCc2ccc(F)cc2)cc1 [XIELP1-106, N-(3,4-bis((4-fluorobenzyl)oxy)benzyl)-1-cyclohexylmethanamine Hydrochloride] | 0.72 µM | 2.46 µM | – | 23% | 11.2% | No other gross clinical abnormality was observed

Further molecules by falling IC50 (RPMI8266), results first:

IC50 (RPMI8266) | IC50 (MM1S) | IC50 (U266) | SMILES | T/C value (antitumor activity) ([1]; 60 mg/kg, ip, q3d×4 wks, tumor volume vs vehicle control, day 39 after tumor implantation, p=0.001) | body weight loss ([1]; mice, 60 mg/kg ip q3d, after 3 doses, tolerability developed afterwards) | other gross clinical abnormality ([1]; mice, 60 mg/kg ip q3d×4 wks)
1.4 µM | 2.5 µM | – | Fc1ccc(COc2cc(CNCC3CCCCC3)cc(OCc3ccc(F)cc3F)c2)c(F)c1 [XIELP1-58, N-(3,5-bis((2,4-difluorobenzyl)oxy)benzyl)-1-cyclohexylmethanamine] | – | – | –
1.33 µM | 2.51 µM | – | Fc1ccc(COc2cc(CNC3CCCCC3)cc(OCc3ccc(F)cc3F)c2)c(F)c1 [XIELP1-60, N-(3,5-bis((2,4-difluorobenzyl)oxy)benzyl)cyclohexanamine] | – | – | –
1.18 µM | 1.77 µM | – | Fc1ccc(COc2ccc(CNC3CCCCC3)cc2OCc2ccc(F)cc2)cc1 [XIELP1-12b, N-(3,4-bis((4-fluorobenzyl)oxy)benzyl)cyclohexanamine] | – | – | –
0.94 µM | 0.84 µM | – | Fc1ccc(COc2ccc(CNCC3CCCCC3)cc2OCc2ccc(F)cc2F)c(F)c1 [XIELP1-17b, N-(3,4-bis((2,4-difluorobenzyl)oxy)benzyl)-1-cyclohexylmethanamine] | – | – | –
0.92 µM | 1.51 µM | 1.26 µM | Cc1ccc(COc2ccc(CNCC3CCCCC3)cc2OCc2ccc(C)cc2)cc1 [XIELP1-25b] | – | – | –
